In patent US20250195536A1, “BICYCLOOCTANE KRAS INHIBITORS” (Incyte Corporation, priority 2023, published 2025):

Tests used:
KRAS G12V = KRAS G12V (Homo sapiens, UniProt P01116, G12V); assay: GDP-GTP exchange assay (KRAS G12V); format: biochemical; conditions: bodipy-GDP/GppNHp exchange with SOS1; 3 h incubation after GppNHp-SOS1;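 note: one dagger IC50 up to 100 nM and two daggers above 100 nM up to 1 μM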
Outline: (§1)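 Bodipy-GDP-loaded KRAS (2.5 nM final) was pre-incubated 4 h at r.t. with inhibitor in Hepes pH 7.5 buffer with MgCl2, then exchange started with GppNHp (500 μM) and SOS1 (150 nM) final. Fluorescence (ex 485/em 520 nm) read after 2 h for G12D, 3 h for G12V; IC50 from four-parameter logistic fit.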

[1] = Caco2 assay (permeability, Papp A-B); format: in vitro ADME; conditions: human, Caco-2, absorptive direction (A-B), 50 μM test compound, 4% BSA in receiver
Outline: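 Caco-2 monolayers, 22-25 days on Transwells, TEER 300 Ω·cm^2, dosed apically with 50 μM compound in HBSS; basolateral HBSS with 4% BSA. 120 min at 37 °C, samples quantified by LCMS; Papp (A-B) from receiver-side cumulative flux slope, donor volume, surface area and initial donor amount.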

KRAS G12D = KRAS G12D (Homo sapiens, UniProt P01116, G12D); assay: GDP-GTP exchange assay (KRAS G12D); format: biochemical; conditions: bodipy-GDP/GppNHp exchange with SOS1; 4 h pre-incubation, 2 h reaction;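 note: one dagger IC50 up to 100 nM and two daggers above 100 nM up to 1 μM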
Chain of KRAS G12D (P01116 1-188 isoform P01116-2 G12D): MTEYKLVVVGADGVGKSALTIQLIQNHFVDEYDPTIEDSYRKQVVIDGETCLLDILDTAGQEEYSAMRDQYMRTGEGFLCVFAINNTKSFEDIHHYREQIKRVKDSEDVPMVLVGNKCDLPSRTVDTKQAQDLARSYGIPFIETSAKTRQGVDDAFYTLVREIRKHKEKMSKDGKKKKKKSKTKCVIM
Outline: as §1

Chain of KRAS G12V (P01116 1-188 isoform P01116-2 G12V): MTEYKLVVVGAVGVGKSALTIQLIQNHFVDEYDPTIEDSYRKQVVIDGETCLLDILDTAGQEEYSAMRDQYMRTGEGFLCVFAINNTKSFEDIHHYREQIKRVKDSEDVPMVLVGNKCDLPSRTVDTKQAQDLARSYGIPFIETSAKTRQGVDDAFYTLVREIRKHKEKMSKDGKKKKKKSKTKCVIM

| Structure (SMILES) | G12V_exchange (KRAS_G12V exchange assay IC50) (KRAS G12V) | Papp A→B at 120 min, 50 μM [1] | G12D_exchange (KRAS_G12D exchange assay IC50) (KRAS G12D) |
| --- | --- | --- | --- |
| Cc1csc(N2C[C@@H]3C[C@H](C2)N(C(=O)C2CC2)[C@H]3c2cc3c(C)nc4c(F)c(-c5cccc(Cl)c5Cl)c(CCC#N)cc4c3n2[C@H]2[C@H]3CN[C@@H]2C3)n1 (atropisomer, axis not shown; (Ra)) [Example 90, 3-((Ra)-1-((1R,4R,5S)-2-azabicyclo[2.1.1]hexan-5-yl)-2-((1S,5R,7R)-6-(cyclopropanecarbonyl)-3-(4-methylthiazol-2-yl)-3,6-diazabicyclo[3.2.1]octan-7-yl)-7-(2,3-dichlorophenyl)-6-fluoro-4-methyl-1H-pyrrolo[3,2-c]quinolin-8-yl)propanenitrile] | † | ≤ 0.5 ×10⁻⁶ cm/s | † |
| Cc1cnc(N2C[C@@H]3C[C@H](C2)N(C(=O)C2CC2)[C@H]3c2cc3c(C)nc4c(F)c(-c5cccc(Cl)c5Cl)c(CCC#N)cc4c3n2[C@H]2[C@H]3CN[C@@H]2C3)s1 (atropisomer, axis not shown; (Ra)) [Example 91, 3-((Ra)-1-((1R,4R,5S)-2-azabicyclo[2.1.1]hexan-5-yl)-2-((1S,5R,7R)-6-(cyclopropanecarbonyl)-3-(5-methylthiazol-2-yl)-3,6-diazabicyclo[3.2.1]octan-7-yl)-7-(2,3-dichlorophenyl)-6-fluoro-4-methyl-1H-pyrrolo[3,2-c]quinolin-8-yl)propanenitrile] | † | ≤ 0.5 ×10⁻⁶ cm/s | † |
| Cc1nc2c(F)c(-c3cccc(Cl)c3Cl)c(CCC#N)cc2c2c1cc([C@H]1[C@H]3C[C@H](CN(c4ncnn4C)C3)N1C(=O)C1CC1)n2[C@H]1[C@H]2CN[C@@H]1C2 (atropisomer, axis not shown; (Ra)) [Example 92, 3-((Ra)-1-((1R,4R,5S)-2-azabicyclo[2.1.1]hexan-5-yl)-2-((1S,5R,7R)-6-(cyclopropanecarbonyl)-3-(1-methyl-1H-1,2,4-triazol-5-yl)-3,6-diazabicyclo[3.2.1]octan-7-yl)-7-(2,3-dichlorophenyl)-6-fluoro-4-methyl-1H-pyrrolo[3,2-c]quinolin-8-yl)propanenitrile] | † | ≤ 0.5 ×10⁻⁶ cm/s | † |
| Cc1nc2c(F)c(-c3cccc(Cl)c3Cl)c(CCC#N)cc2c2c1cc([C@H]1[C@H]3C[C@H](CN(c4cscn4)C3)N1C(=O)C1CC1)n2[C@H]1[C@H]2CN[C@@H]1C2 (atropisomer, axis not shown; (Ra)) [Example 93, 3-((Ra)-1-((1R,4R,5S)-2-azabicyclo[2.1.1]hexan-5-yl)-2-((1S,5R,7R)-6-(cyclopropanecarbonyl)-3-(thiazol-4-yl)-3,6-diazabicyclo[3.2.1]octan-7-yl)-7-(2,3-dichlorophenyl)-6-fluoro-4-methyl-1H-pyrrolo[3,2-c]quinolin-8-yl)propanenitrile] | † | ≤ 0.5 ×10⁻⁶ cm/s | † |
| Cc1nc2c(F)c(-c3cccc(Cl)c3Cl)c(CCC#N)cc2c2c1cc([C@H]1[C@H]3C[C@H](CN(c4nc(C(F)(F)F)cs4)C3)N1C(=O)C1CC1)n2[C@H]1[C@H]2CN[C@@H]1C2 (atropisomer, axis not shown; (Ra)) [Example 94, 3-((Ra)-1-((1R,4R,5S)-2-azabicyclo[2.1.1]hexan-5-yl)-2-((1S,5R,7R)-6-(cyclopropanecarbonyl)-3-(4-(trifluoromethyl)thiazol-2-yl)-3,6-diazabicyclo[3.2.1]octan-7-yl)-7-(2,3-dichlorophenyl)-6-fluoro-4-methyl-1H-pyrrolo[3,2-c]quinolin-8-yl)propanenitrile] | † | ≤ 0.5 ×10⁻⁶ cm/s | † |
| Cc1nc(N2C[C@@H]3C[C@H](C2)N(C(=O)C2CC2)[C@H]3c2cc3c(C)nc4c(F)c(-c5cccc(Cl)c5Cl)c(CCC#N)cc4c3n2[C@H]2[C@H]3CN[C@@H]2C3)sc1C (atropisomer, axis not shown; (Ra)) [Example 95, 3-((Ra)-1-((1R,4R,5S)-2-azabicyclo[2.1.1]hexan-5-yl)-2-((1S,5R,7R)-6-(cyclopropanecarbonyl)-3-(4,5-dimethylthiazol-2-yl)-3,6-diazabicyclo[3.2.1]octan-7-yl)-7-(2,3-dichlorophenyl)-6-fluoro-4-methyl-1H-pyrrolo[3,2-c]quinolin-8-yl)propanenitrile] | † | ≤ 0.5 ×10⁻⁶ cm/s | † |

Other lines, results leading:

| G12V_exchange (KRAS_G12V exchange assay IC50) (KRAS G12V) | Papp A→B at 120 min, 50 μM [1] | G12D_exchange (KRAS_G12D exchange assay IC50) (KRAS G12D) | Structure (SMILES) |
| --- | --- | --- | --- |
| † | ≤ 0.5 ×10⁻⁶ cm/s | † | Cc1nc2c(F)c(-c3cccc(Cl)c3Cl)c(CCC#N)cc2c2c1cc([C@H]1[C@H]3C[C@H](CN(c4nc(C#N)cs4)C3)N1C(=O)C1CC1)n2[C@H]1[C@H]2CN[C@@H]1C2 (atropisomer, axis not shown; (Ra)) [Example 96, 2-((1S,5R,7R)-7-((Ra)-1-((1R,4R,5S)-2-azabicyclo[2.1.1]hexan-5-yl)-8-(2-cyanoethyl)-7-(2,3-dichlorophenyl)-6-fluoro-4-methyl-1H-pyrrolo[3,2-c]quinolin-2-yl)-6-(cyclopropanecarbonyl)-3,6-diazabicyclo[3.2.1]octan-3-yl)thiazole-4-carbonitrile] |
| † | ≤ 0.5 ×10⁻⁶ cm/s | † | Cc1sc(N2C[C@@H]3C[C@H](C2)N(C(=O)C2CC2)[C@H]3c2cc3c(C)nc4c(F)c(-c5cccc(Cl)c5Cl)c(CCC#N)cc4c3n2[C@H]2[C@H]3CN[C@@H]2C3)nc1C#N (atropisomer, axis not shown; (Ra)) [Example 97, 2-((1S,5R,7R)-7-((Ra)-1-((1R,4R,5S)-2-azabicyclo[2.1.1]hexan-5-yl)-8-(2-cyanoethyl)-7-(2,3-dichlorophenyl)-6-fluoro-4-methyl-1H-pyrrolo[3,2-c]quinolin-2-yl)-6-(cyclopropanecarbonyl)-3,6-diazabicyclo[3.2.1]octan-3-yl)-5-methylthiazole-4-carbonitrile] |
| † | ≤ 0.5 ×10⁻⁶ cm/s | † | Cc1nc(N2C[C@@H]3C[C@H](C2)N(C(=O)C2CC2)[C@H]3c2cc3c(C)nc4c(F)c(-c5cccc(Cl)c5Cl)c(CCC#N)cc4c3n2[C@H]2[C@H]3CN[C@@H]2C3)sc1C#N (atropisomer, axis not shown; (Ra)) [Example 98, 2-((1S,5R,7R)-7-((Ra)-1-((1R,4R,5S)-2-azabicyclo[2.1.1]hexan-5-yl)-8-(2-cyanoethyl)-7-(2,3-dichlorophenyl)-6-fluoro-4-methyl-1H-pyrrolo[3,2-c]quinolin-2-yl)-6-(cyclopropanecarbonyl)-3,6-diazabicyclo[3.2.1]octan-3-yl)-4-methylthiazole-5-carbonitrile] |
| † | ≤ 0.5 ×10⁻⁶ cm/s | † | CCc1cnc(N2C[C@@H]3C[C@H](C2)N(C(=O)C2CC2)[C@H]3c2cc3c(C)nc4c(F)c(-c5cccc(Cl)c5Cl)c(CCC#N)cc4c3n2[C@H]2[C@H]3CN[C@@H]2C3)s1 (atropisomer, axis not shown; (Ra)) [Example 99, 3-((Ra)-1-((1R,4R,5S)-2-azabicyclo[2.1.1]hexan-5-yl)-2-((1S,5R,7R)-6-(cyclopropanecarbonyl)-3-(5-ethylthiazol-2-yl)-3,6-diazabicyclo[3.2.1]octan-7-yl)-7-(2,3-dichlorophenyl)-6-fluoro-4-methyl-1H-pyrrolo[3,2-c]quinolin-8-yl)propanenitrile] |
| † | ≤ 0.5 ×10⁻⁶ cm/s | † | Cc1nc2c(F)c(-c3cccc(Cl)c3Cl)c(CCC#N)cc2c2c1cc([C@H]1[C@H]3C[C@H](CN(c4ccon4)C3)N1C(=O)C1CC1)n2[C@H]1[C@H]2CN[C@@H]1C2 (atropisomer, axis not shown; (Ra)) [Example 100, 3-((Ra)-1-((1R,4R,5S)-2-azabicyclo[2.1.1]hexan-5-yl)-2-((1S,5R,7R)-6-(cyclopropanecarbonyl)-3-(isoxazol-3-yl)-3,6-diazabicyclo[3.2.1]octan-7-yl)-7-(2,3-dichlorophenyl)-6-fluoro-4-methyl-1H-pyrrolo[3,2-c]quinolin-8-yl)propanenitrile] |
| † | ≤ 0.5 ×10⁻⁶ cm/s | † | Cc1sc(N2C[C@@H]3C[C@H](C2)N(C(=O)C2CC2)[C@H]3c2cc3c(C)nc4c(F)c(-c5cccc(Cl)c5Cl)c(CCC#N)cc4c3n2[C@H]2[C@H]3CN[C@@H]2C3)nc1C(C)(F)F (atropisomer, axis not shown; (Ra)) [Example 103, 3-((Ra)-1-((1R,4R,5S)-2-azabicyclo[2.1.1]hexan-5-yl)-2-((1S,5R,7R)-6-(cyclopropanecarbonyl)-3-(4-(1,1-difluoroethyl)-5-methylthiazol-2-yl)-3,6-diazabicyclo[3.2.1]octan-7-yl)-7-(2,3-dichlorophenyl)-6-fluoro-4-methyl-1H-pyrrolo[3,2-c]quinolin-8-yl)propanenitrile] |
